Species on record: Rattus norvegicus
Assay: Open TG-GATES - Regimen: Single
Assay type: toxicity, organism-based, Sprague-Dawley
Design: regimen Single, gender Male, age 6 weeks
Conditions: in vivo, po, route gavage; for APTT / Bas / Eos / Fbg / Hb / Ht / Lym / MCH / MCHC / MCV / Mono / Neu / PT / Plat / RBC / Ret / WBC: tissue Blood; for KIDNEY_L / KIDNEY_R / KIDNEY_TOTAL: tissue Kidney; for LIVER: tissue Liver; for A/G / ALP / ALT / AST / BUN / CRE / Ca / Cl / DBIL / GLC / IP / K / LDH / Na / PL / RALB / TBIL / TC / TG / TP / gamma-GTP: tissue Plasma
[1] = 300 mg/kg, 3 h, dose level Middle
[2] = 300 mg/kg, 6 h, dose level Middle
[3] = 300 mg/kg, 9 h, dose level Middle
[4] = 300 mg/kg, 24 h, dose level Middle
[5] = 1000 mg/kg, 3 h, dose level High
[6] = 1000 mg/kg, 6 h, dose level High
[7] = 1000 mg/kg, 9 h, dose level High
[8] = 1000 mg/kg, 24 h, dose level High

COC1=CC(=O)C[C@@H](C)[C@]12Oc1c(Cl)c(OC)cc(OC)c1C2=O [GRISEOFULVIN]
TERMINAL_BW [1]: 212.4 g
APTT [1]: 18.3 s
Bas [1]: 0%
Eos [1]: 1.2%
Fbg [1]: 229.2 mg/dL
Hb [1]: 12.7 g/dL
Ht [1]: 37.4%
Lym [1]: 71.6%
MCH [1]: 21.5 pg
MCHC [1]: 34.1%
MCV [1]: 63.1 fL
Mono [1]: 3.4%
Neu [1]: 23.2%
PT [1]: 12.9 s
Plat [1]: 130.7 x10_4/uL
RBC [1]: 592 x10_4/ul
Ret [1]: 7.8%
WBC [1]: 110.1 x10_2/uL
KIDNEY_L [1]: 0.9 g
KIDNEY_R [1]: 0.9 g
KIDNEY_TOTAL [1]: 1.9 g
LIVER [1]: 9.7 g
A/G [1]: 1.6
ALP [1]: 1144 IU/L
ALT [1]: 40.8 IU/L
AST [1]: 69.2 IU/L
BUN [1]: 11.2 mg/dL
CRE [1]: 0.3 mg/dL
Ca [1]: 11 mg/dL
Cl [1]: 104.2 meq/L
DBIL [1]: 0.2 mg/dL
GLC [1]: 190.4 mg/dL
IP [1]: 8.7 mg/dL
K [1]: 4 meq/L
LDH [1]: 113.8 IU/L
Na [1]: 140.8 meq/L
PL [1]: 175.8 mg/dL
RALB [1]: 3.3 g/dL
TBIL [1]: 0.2 mg/dL
TC [1]: 84.8 mg/dL
TG [1]: 134.8 mg/dL
TP [1]: 5.3 g/dL
gamma-GTP [1]: 1.2 IU/L
TERMINAL_BW [2]: 212.5 g
APTT [2]: 17.7 s
Bas [2]: 0%
Eos [2]: 1%
Fbg [2]: 220.2 mg/dL
Hb [2]: 12.8 g/dL
Ht [2]: 38.1%
Lym [2]: 72.6%
MCH [2]: 21.8 pg
MCHC [2]: 33.6%
MCV [2]: 64.7 fL
Mono [2]: 3.6%
Neu [2]: 22.4%
PT [2]: 13.1 s
Plat [2]: 129.2 x10_4/uL
RBC [2]: 588.6 x10_4/ul
Ret [2]: 7.9%
WBC [2]: 82.9 x10_2/uL
KIDNEY_L [2]: 1 g
KIDNEY_R [2]: 1 g
KIDNEY_TOTAL [2]: 2 g
LIVER [2]: 9.5 g
A/G [2]: 1.8
ALP [2]: 1072.4 IU/L
ALT [2]: 37.2 IU/L
AST [2]: 68.4 IU/L
BUN [2]: 10.2 mg/dL
CRE [2]: 0.4 mg/dL
Ca [2]: 10.8 mg/dL
Cl [2]: 103.2 meq/L
DBIL [2]: 0.096 mg/dL
GLC [2]: 205.6 mg/dL
IP [2]: 9.7 mg/dL
K [2]: 4 meq/L
LDH [2]: 139.2 IU/L
Na [2]: 141.4 meq/L
PL [2]: 150.6 mg/dL
RALB [2]: 3.4 g/dL
TBIL [2]: 0.2 mg/dL
TC [2]: 79 mg/dL
TG [2]: 50.4 mg/dL
TP [2]: 5.4 g/dL
gamma-GTP [2]: 1.4 IU/L
TERMINAL_BW [3]: 210.4 g
APTT [3]: 17.3 s
Bas [3]: 0%
Eos [3]: 0.8%
Fbg [3]: 214 mg/dL
Hb [3]: 12.9 g/dL
Ht [3]: 38.2%
Lym [3]: 79.4%
MCH [3]: 21.4 pg
MCHC [3]: 33.9%
MCV [3]: 63.1 fL
Mono [3]: 2.6%
Neu [3]: 17%
PT [3]: 13.6 s
Plat [3]: 115.4 x10_4/uL
RBC [3]: 605 x10_4/ul
Ret [3]: 8.2%
WBC [3]: 82.6 x10_2/uL
KIDNEY_L [3]: 1 g
KIDNEY_R [3]: 1 g
KIDNEY_TOTAL [3]: 2 g
LIVER [3]: 8.7 g
A/G [3]: 1.6
ALP [3]: 1051.6 IU/L
ALT [3]: 30.8 IU/L
AST [3]: 63 IU/L
BUN [3]: 11.4 mg/dL
CRE [3]: 0.3 mg/dL
Ca [3]: 10.6 mg/dL
Cl [3]: 103.8 meq/L
DBIL [3]: 0.07 mg/dL
GLC [3]: 200.2 mg/dL
IP [3]: 10.3 mg/dL
K [3]: 3.8 meq/L
LDH [3]: 132.4 IU/L
Na [3]: 141.6 meq/L
PL [3]: 140.6 mg/dL
RALB [3]: 3.3 g/dL
TBIL [3]: 0.1 mg/dL
TC [3]: 75 mg/dL
TG [3]: 43 mg/dL
TP [3]: 5.4 g/dL
gamma-GTP [3]: 1.2 IU/L
TERMINAL_BW [4]: 223.4 g
APTT [4]: 18.9 s
Bas [4]: 0%
Eos [4]: 0.8%
Fbg [4]: 204.6 mg/dL
Hb [4]: 13.3 g/dL
Ht [4]: 40%
Lym [4]: 76.2%
MCH [4]: 21.5 pg
MCHC [4]: 33.3%
MCV [4]: 64.5 fL
Mono [4]: 2.4%
Neu [4]: 19.8%
PT [4]: 12.7 s
Plat [4]: 125.2 x10_4/uL
RBC [4]: 621 x10_4/ul
Ret [4]: 7.3%
WBC [4]: 85.6 x10_2/uL
KIDNEY_L [4]: 1 g
KIDNEY_R [4]: 1 g
KIDNEY_TOTAL [4]: 1.9 g
LIVER [4]: 10.9 g
A/G [4]: 1.8
ALP [4]: 958.6 IU/L
ALT [4]: 42.8 IU/L
AST [4]: 64.8 IU/L
BUN [4]: 14.6 mg/dL
CRE [4]: 0.4 mg/dL
Ca [4]: 10.9 mg/dL
Cl [4]: 103.8 meq/L
DBIL [4]: 0.1 mg/dL
GLC [4]: 208 mg/dL
IP [4]: 8.1 mg/dL
K [4]: 4.2 meq/L
LDH [4]: 119.8 IU/L
Na [4]: 141.4 meq/L
PL [4]: 144.6 mg/dL
RALB [4]: 3.4 g/dL
TBIL [4]: 0.2 mg/dL
TC [4]: 76.8 mg/dL
TG [4]: 102 mg/dL
TP [4]: 5.4 g/dL
gamma-GTP [4]: 1.4 IU/L
TERMINAL_BW [5]: 213.3 g
APTT [5]: 19.4 s
Bas [5]: 0%
Eos [5]: 1%
Fbg [5]: 212.2 mg/dL
Hb [5]: 12.2 g/dL
Ht [5]: 35.6%
Lym [5]: 78.4%
MCH [5]: 21.9 pg
MCHC [5]: 34.3%
MCV [5]: 63.7 fL
Mono [5]: 3%
Neu [5]: 17%
PT [5]: 13.2 s
Plat [5]: 124.4 x10_4/uL
RBC [5]: 557.4 x10_4/ul
Ret [5]: 8.3%
WBC [5]: 88.7 x10_2/uL
KIDNEY_L [5]: 0.9 g
KIDNEY_R [5]: 0.9 g
KIDNEY_TOTAL [5]: 1.9 g
LIVER [5]: 9.6 g
A/G [5]: 1.9
ALP [5]: 900 IU/L
ALT [5]: 36 IU/L
AST [5]: 66.6 IU/L
BUN [5]: 10.6 mg/dL
CRE [5]: 0.3 mg/dL
Ca [5]: 11 mg/dL
Cl [5]: 103.6 meq/L
DBIL [5]: 0.2 mg/dL
GLC [5]: 184.2 mg/dL
IP [5]: 8.2 mg/dL
K [5]: 4 meq/L
LDH [5]: 128.4 IU/L
Na [5]: 140.4 meq/L
PL [5]: 179.2 mg/dL
RALB [5]: 3.4 g/dL
TBIL [5]: 0.3 mg/dL
TC [5]: 86 mg/dL
TG [5]: 122.6 mg/dL
TP [5]: 5.2 g/dL
gamma-GTP [5]: 1.6 IU/L
TERMINAL_BW [6]: 211 g
APTT [6]: 18.5 s
Bas [6]: 0%
Eos [6]: 1%
Fbg [6]: 211.2 mg/dL
Hb [6]: 12.7 g/dL
Ht [6]: 37.4%
Lym [6]: 75.6%
MCH [6]: 21.9 pg
MCHC [6]: 34%
MCV [6]: 64.3 fL
Mono [6]: 4%
Neu [6]: 19%
PT [6]: 13.3 s
Plat [6]: 123.4 x10_4/uL
RBC [6]: 582 x10_4/ul
Ret [6]: 7.7%
WBC [6]: 90 x10_2/uL
KIDNEY_L [6]: 1 g
KIDNEY_R [6]: 1 g
KIDNEY_TOTAL [6]: 2 g
LIVER [6]: 9.2 g
A/G [6]: 1.7
ALP [6]: 994.4 IU/L
ALT [6]: 34 IU/L
AST [6]: 66.8 IU/L
BUN [6]: 10.4 mg/dL
CRE [6]: 0.3 mg/dL
Ca [6]: 10.8 mg/dL
Cl [6]: 103.2 meq/L
DBIL [6]: 0.092 mg/dL
GLC [6]: 204 mg/dL
IP [6]: 9.1 mg/dL
K [6]: 4.1 meq/L
LDH [6]: 144.2 IU/L
Na [6]: 141 meq/L
PL [6]: 154.6 mg/dL
RALB [6]: 3.3 g/dL
TBIL [6]: 0.2 mg/dL
TC [6]: 82.8 mg/dL
TG [6]: 45 mg/dL
TP [6]: 5.3 g/dL
gamma-GTP [6]: 1.4 IU/L
TERMINAL_BW [7]: 207.4 g
APTT [7]: 17.9 s
Bas [7]: 0%
Eos [7]: 0.8%
Fbg [7]: 202.4 mg/dL
Hb [7]: 12.4 g/dL
Ht [7]: 36.1%
Lym [7]: 75.2%
MCH [7]: 21.5 pg
MCHC [7]: 34.3%
MCV [7]: 62.8 fL
Mono [7]: 2.2%
Neu [7]: 21.6%
PT [7]: 13.9 s
Plat [7]: 113.3 x10_4/uL
RBC [7]: 575.8 x10_4/ul
Ret [7]: 7.7%
WBC [7]: 71.8 x10_2/uL
KIDNEY_L [7]: 0.9 g
KIDNEY_R [7]: 1 g
KIDNEY_TOTAL [7]: 1.9 g
LIVER [7]: 8.4 g
A/G [7]: 1.8
ALP [7]: 1031 IU/L
ALT [7]: 31.4 IU/L
AST [7]: 67.6 IU/L
BUN [7]: 10.8 mg/dL
CRE [7]: 0.3 mg/dL
Ca [7]: 10.8 mg/dL
Cl [7]: 104.4 meq/L
DBIL [7]: 0.07 mg/dL
GLC [7]: 186.4 mg/dL
IP [7]: 10.1 mg/dL
K [7]: 3.9 meq/L
LDH [7]: 153.2 IU/L
Na [7]: 142.2 meq/L
PL [7]: 134.2 mg/dL
RALB [7]: 3.5 g/dL
TBIL [7]: 0.1 mg/dL
TC [7]: 74.2 mg/dL
TG [7]: 26.8 mg/dL
TP [7]: 5.5 g/dL
gamma-GTP [7]: 1.2 IU/L
TERMINAL_BW [8]: 222.6 g
APTT [8]: 18.9 s
Bas [8]: 0%
Eos [8]: 0.8%
Fbg [8]: 206.4 mg/dL
Hb [8]: 13.1 g/dL
Ht [8]: 39.3%
Lym [8]: 79.2%
MCH [8]: 21.9 pg
MCHC [8]: 33.4%
MCV [8]: 65.5 fL
Mono [8]: 2.6%
Neu [8]: 16.8%
PT [8]: 13 s
Plat [8]: 123.4 x10_4/uL
RBC [8]: 600.4 x10_4/ul
Ret [8]: 8%
WBC [8]: 97.5 x10_2/uL
KIDNEY_L [8]: 1 g
KIDNEY_R [8]: 1 g
KIDNEY_TOTAL [8]: 2 g
LIVER [8]: 10.5 g
A/G [8]: 1.6
ALP [8]: 1124.8 IU/L
ALT [8]: 39.8 IU/L
AST [8]: 69.8 IU/L
BUN [8]: 13.2 mg/dL
CRE [8]: 0.4 mg/dL
Ca [8]: 10.9 mg/dL
Cl [8]: 104 meq/L
DBIL [8]: 0.1 mg/dL
GLC [8]: 212.4 mg/dL
IP [8]: 8.5 mg/dL
K [8]: 4 meq/L
LDH [8]: 148.6 IU/L
Na [8]: 141 meq/L
PL [8]: 153 mg/dL
RALB [8]: 3.3 g/dL
TBIL [8]: 0.2 mg/dL
TC [8]: 88 mg/dL
TG [8]: 88.4 mg/dL
TP [8]: 5.4 g/dL
gamma-GTP [8]: 1.4 IU/L

— ChEMBL document CHEMBL3885861, “Open TG-GATES”
